Assay results as given in patent US6806230B1, “Pyrimidine derivatives and herbicides containing them” (Kumiai Chemical Industry Co., Ltd., priority 1999, dated 2004).

Experiments:
Assay type in all cases: in vivo
barnyard grass (Eo) [1] = assay: Test Example 1: herbicidal effects by flooded paddy field treatment; design: herbicidal effects, Eo (barnyard grass):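 0-5 growth inhibition grade; 5 = over 90%; 4 = 70-90%; 3 = 50-70%; 2 = 30-50%; 1 = 10-30%; 0 = under 10%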; conditions: for herbicidal effects, Eo (barnyard grass): dose 100 g active ingredient per 10 ares, examined on the 21st day after treatment, standards of Table 44;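 for Herbicidal effect index, Eo: 0-5 growth inhibition grade; 5 = over 90%; 4 = 70-90%; 3 = 50-70%; 2 = 30-50%; 1 = 10-30%; 0 = under 10%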
How it was run: (§1)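 Flooded paddy pre-emergence test: sowing into puddled soil under 3 cm water, then dropwise water-surface treatment the following day with diluted wettable powder at 100 g active ingredient per 10 ares. Greenhouse cultivation followed, and weeds were rated against a standard scale at 21 days.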

monochoria (Mo) [2] = assay: as above; design: herbicidal effects, Mo (monochoria):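 0-5 growth inhibition grade; 5 = over 90%; 4 = 70-90%; 3 = 50-70%; 2 = 30-50%; 1 = 10-30%; 0 = under 10%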; conditions: for herbicidal effects, Mo (monochoria): dose 100 g active ingredient per 10 ares, examined on the 21st day after treatment, standards of Table 44
How it was run: as §1

barnyard grass (Ec) [3] = assay: Test Example 2: herbicidal effects by upland soil treatment; design: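 0-5 growth inhibition grade; 5 = over 90%; 4 = 70-90%; 3 = 50-70%; 2 = 30-50%; 1 = 10-30%; 0 = under 10%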; conditions: dose 100 g active ingredient per 10 ares, examined on the 21st day after treatment; for herbicidal effects, Ec (barnyard grass): standards of Table 44
How it was run: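 Pre-emergence test: barnyard grass and green foxtail sown in upland soil, then soil surface sprayed with wettable-powder formulation at 100 g active ingredient per 10 ares (100 l per 10 ares). Grown in greenhouse; herbicidal effect scored on a rating scale 21 days after treatment.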

green foxtail (Se) = assay: as above; conditions: dose 100 g active ingredient per 10 ares, examined on the 21st day after treatment, standards of Table 44;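 note: 0-5 growth inhibition grade; 5 = over 90%; 4 = 70-90%; 3 = 50-70%; 2 = 30-50%; 1 = 10-30%; 0 = under 10%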
Method: In a 80 cm^2 plastic pot, upland soil was filled, and seeds of barnyard grass (Ec) and green foxtail (Se) were sown and covered with soil. A wettable powder prepared in accordance with Formulation Example 1 was diluted with water and uniformly applied to the soil surface by means of a small size spray at a rate of 100 l per 10 ares, so that the dose of the active ingredient would be 100 g per 10 ares. Thereafter, cultivation was carried out in a green house, and on the 21st day after the treatment, the herbicidal effects were examined in accordance with the standards as identified in Table 44.

monochoria (Mo) [4] = assay: Test Example 4: selectivity for a crop plant by flooded paddy field treatment; design: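 0-5 growth inhibition grade; 5 = over 90%; 4 = 70-90%; 3 = 50-70%; 2 = 30-50%; 1 = 10-30%; 0 = under 10%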; conditions: monochoria, dose 25 gai/10a, 21st day after treatment, index per Table 44
How it was run: (§2)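 Steps: fill pot with paddy soil and puddle; sow weed seeds; transplant rice at second-leaf stage; flood to 3 cm. Next day, drip the water-diluted wettable powder onto the water (25 g a.i./10 ares). Grow in greenhouse and rate herbicidal effect on day 21.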

rice (Or) = assay: as above; design: scale not given here; conditions: rice transplanted at second leaf stage, dose 25 gai/10a, 21st day after treatment, index per Table 44
How it was run: as §2

barnyard grass (Eo) [5] = assay: as above; design: scale not given here; conditions: barnyard grass, dose 25 gai/10a, 21st day after treatment, index per Table 44
How it was run: as §2

barnyard grass (Ec) [6] = assay: Test Example 3: herbicidal effects by foliage treatment in upland field; design: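 0-5 growth inhibition grade; 5 = over 90%; 4 = 70-90%; 3 = 50-70%; 2 = 30-50%; 1 = 10-30%; 0 = under 10%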; conditions: dose 100 g active ingredient per 10 ares, examined on the 14th day after treatment
How it was run: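 Barnyard grass and green foxtail were grown in upland soil for 2 weeks in a greenhouse. A water-diluted wettable powder was sprayed over the foliage at 100 l per 10 ares, giving 100 g active ingredient per 10 ares. Herbicidal effect was scored on day 14 after treatment.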

[7] = dose 100 gai/10a, examined on 21st day after treatment, index 0-5 per Table 44
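Throughout, for Herbicidal effect index, Mo: 0-5 growth inhibition grade; 5 = over 90%; 4 = 70-90%; 3 = 50-70%; 2 = 30-50%; 1 = 10-30%; 0 = under 10%.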

SMILES | Herbicidal effect index, Eo (barnyard grass (Eo) [1]; [7]) | Herbicidal effect index, Mo (monochoria (Mo) [2]; [7]) | herbicidal effects, Ec (barnyard grass) (barnyard grass (Ec) [3]) | herbicidal effects, Se (green foxtail) (green foxtail (Se)) | herbicidal effects, Eo (barnyard grass) (barnyard grass (Eo) [1]) | herbicidal effects, Mo (monochoria) (monochoria (Mo) [2]) | Mo (herbicidal effect index) (monochoria (Mo) [4]) | Or (herbicidal effect index on crop) (rice (Or)) | Eo (herbicidal effect index) (barnyard grass (Eo) [5]) | Ec (herbicidal effects, index) (barnyard grass (Ec) [3]) | Ec (herbicidal effects, index) (barnyard grass (Ec) [6])
CC(Oc1ccccc1)C(=O)N(C)C(c1cncnc1C(F)(F)F)C(C)C (mixture of isomers) [Compound 1-115] | 5 | 5 | 5 | 5 | – | – | – | – | – | – | –
COC(C(=O)N(C)C(c1cncnc1C(F)(F)F)C(C)C)c1ccc(Cl)cc1 (mixture of isomers) [Compound 1-155] | – | – | 4 | 4 | 5 | 5 | – | – | – | – | –
CCN(C(=O)Cc1cccc(F)c1)C(c1cncnc1C(F)(F)F)C(C)C (racemic) [1-173] | – | – | 5 | 5 | 5 | 5 | – | – | – | – | –
CCN(C(=O)Cc1ccc(C(F)(F)F)cc1)C(c1cncnc1C(F)(F)F)C(C)C (racemic) [1-174] | – | – | 5 | 5 | 5 | 5 | – | – | – | – | –
CC(C)C(c1cncnc1C(F)(F)F)N(C)C(=O)Oc1ccc(F)cc1 (racemic) [1-177] | – | – | 4 | 4 | 5 | 5 | – | – | – | – | –
CN(C(=O)Cc1ccc(Cl)cc1)C(c1ccccc1)c1cncnc1C(F)(F)F (racemic) [1-187] | – | – | 5 | 5 | 5 | 5 | – | – | – | – | –
CN(C(=O)Cc1ccc(F)cc1)C(c1ccc(Cl)cc1)c1cncnc1C(F)(F)F (racemic) [1-222] | – | – | 5 | 5 | 5 | 5 | – | – | – | – | –
CC(C)C(c1cncnc1C(F)(F)F)N(CC#N)C(=O)Cc1ccc(F)cc1 (racemic) [1-579] | – | – | – | – | 5 | 5 | 5 | 1 | 5 | 5 | 4
COCC(c1cncnc1C(C)C)N(C)C(=O)Cc1ccc(Cl)cc1 (racemic) [1-584] | – | – | – | – | 5 | 5 | 5 | 1 | 5 | 5 | 4
C#CCN(C(=O)Cc1ccccc1)C(CCC)c1cncnc1CC (racemic) [1-606] | – | – | – | – | 5 | 5 | 5 | 1 | 5 | 5 | 4
C#CCN(C(=O)Cc1ccc(F)cc1)C(CCC)c1cncnc1CC (racemic) [1-607] | – | – | – | – | 5 | 5 | 5 | 1 | 5 | 4 | 4
C#CCN(C(=O)Cc1ccc(C)cc1)C(CCC)c1cncnc1CC (racemic) [1-609] | – | – | – | – | 5 | 5 | 5 | 1 | 5 | 5 | 4
C#CCN(C(=O)Cc1ccc(F)cc1)C(CCC)c1cncnc1C(C)C (racemic) [1-611] | – | – | – | – | 5 | 5 | 5 | 1 | 5 | 5 | 4
CC(C)C(c1cncnc1C(F)(F)F)N(C)C(=O)Cc1ccc(Cl)s1 (racemic) [2-25] | – | – | – | – | 5 | 5 | 5 | 1 | 5 | 5 | 5
Cc1ccc(CC(=O)N(C)C(c2cncnc2C(F)(F)F)C(C)C)s1 (racemic) [2-50] | – | – | – | – | 5 | 5 | 5 | 1 | 5 | 5 | 4
CC(C)c1ncncc1C(C(C)C)N(C)C(=O)Cc1ccc(Cl)s1 (racemic) [2-71] | – | – | – | – | 5 | 5 | 5 | 1 | 5 | 5 | 5
C#CCN(C(=O)Cc1ccc(Cl)s1)C(c1cncnc1C(F)(F)F)C(C)C (racemic) [2-74] | – | – | – | – | 5 | 5 | 5 | 1 | 5 | 5 | 4
CCc1ncncc1C(C(C)C)N(C)C(=O)Cc1ccc(Cl)s1 (racemic) [2-75] | – | – | – | – | 5 | 5 | 5 | 1 | 5 | 5 | 5
CCc1ncncc1C(C(C)C)N(C)S(=O)(=O)c1ccccc1 (racemic) [4-2] | – | – | – | – | 5 | 5 | 5 | 1 | 5 | 5 | 5
COc1ccc(SC(=O)N(C)C(c2cncnc2C(F)(F)F)C(C)C)cc1 (racemic) [Compound 1-11] | – | – | 5 | 5 | – | – | – | – | – | – | –
CCOC(=O)c1ncncc1C(C(C)C)N(C)C(=O)C(C)c1ccc(Cl)cc1 (single isomer, unassigned) [1-594] | – | – | – | – | 5 | 5 | 5 | 1 | 5 | 5 | 5
